Source: patent publication US10894069B2, “Topical antiviral formulations and methods of using the same” (priority 2015, dated 2021)

How the values were obtained:
[1] = cited from earlier work
[2] = cited from earlier work; remark: listed apart in the source
Herpes simplex = assay: Informal patient trials, topical treatment of Herpes simplex of the lips / herpes labialis; format: in vivo, human; details: person; for benefit of prior therapy, orally: oral
herpes genitalias = assay: Patient case, topical treatment of herpes genitalis; format: in vivo, human; details: person, high dose
Procedure: Operating with informed consent, individuals treated with the topical composition and the methods of the present invention for treating herpes virus infection, more particularly Herpes simplex and herpes zoster or shingles, as described in Examples 3 to 8.
A person presented with a decade or longer history of herpes genitalias recurring on the epithelium of the penis, more specifically the shaft. […] The patient was then treated with Composition B of the cannabinoid rich topical of Example 1 one to two times a day.

With `Nc1nc2c(ncn2COCCO)c(=O)[nH]1` [acyclovir] as the compound, how does the solubility in water [1] read?
Its solubility in water is “poor water-solubility”.

And the “concentrations in the skin following topical application versus following oral administration” value [2]?
Its value is 2-3 times lower.

For `Nc1nc2c(ncn2COCCO)c(=O)[nH]1` [Zovirax, acyclovir], which “benefit of prior therapy, orally” value (Herpes simplex) is on record?
Its value is “slight benefit”.

What about the “benefit of prior therapy, topically” value (Herpes simplex; topical) of the same compound?
The value was “without benefit”.

Which “response of severe pain with burning and tingling to prior therapy” value (herpes genitalias) does the source give for `CC(C)[C@H](N)C(=O)OCCOCn1cnc2c(=O)[nH]c(N)nc21` [Valtrex, valacyclovir] here?
The value was “had not responded”.

What about the “satisfaction with prior therapy” value (Herpes simplex; high doses) of the same compound?
The value was “without total satisfaction”.

And the “benefit of prior therapy, orally” value (Herpes simplex)?
The value was “slight benefit”.

For `CCCCCc1cc(O)c2c(c1)OC(C)(C)[C@@H]1CCC(C)=C[C@@H]21` [THC, delta-9-tetrahydrocannabinol], which “solubility in organic solvents” value ([1]; specifically lipids and alcohols) is on record?
Its value is “good solubility in most organic solvents”.
